{
  "source": "paper PMC5218480",
  "about": "(PLoS ONE, 2017)",
  "tested_on": "MV-4-11 cells",
  "assay": "Gene expression microarray analysis (Affymetrix PrimeView) and GSEA",
  "format": "cell-based, human",
  "set-up": "RFU PODN (11730768_x_at) / Fold change /veh PODN (11730768_x_at) / RFU LINC00158 (11744669_a_at) / Fold change /veh LINC00158 (11744669_a_at) / RFU DUSP10 (11751237_a_at) / Fold change /veh DUSP10 (11751237_a_at) / RFU ID3 (11757404_x_at) / Fold change /veh ID3 (11757404_x_at) / RFU PLEKHG5 (11737974_s_at) / Fold change /veh PLEKHG5 (11737974_s_at) / RFU LRRC4B (11730491_at) / Fold change /veh LRRC4B (11730491_at) / RFU GIMAP4 (11747438_a_at) / Fold change /veh GIMAP4 (11747438_a_at) / RFU KRT8 (11758183_x_at) / Fold change /veh KRT8 (11758183_x_at) / RFU CNN1 (11734310_a_at) / Fold change /veh CNN1 (11734310_a_at) / RFU VPS37D (11726825_at) / Fold change /veh VPS37D (11726825_at) / RFU C10orf10 (11716522_x_at) / Fold change /veh C10orf10 (11716522_x_at) / RFU KIR2DL2 /// KIR2DL4 /// KIR2DL5A /// KIR2DL5B /// KIR2DS1 /// KIR2DS2 /// KIR2DS3 /// KIR2DS4 /// KIR3DL3 /// KIR3DL3 /// KIR3DS1 (11738374_at) / Fold change /veh KIR2DL2 /// KIR2DL4 /// KIR2DL5A /// KIR2DL5B /// KIR2DS1 /// KIR2DS2 /// KIR2DS3 /// KIR2DS4 /// KIR3DL3 /// KIR3DL3 /// KIR3DS1 (11738374_at) / RFU C1QL1 (11718748_at) / Fold change /veh C1QL1 (11718748_at) / RFU TMPRSS4 (11747572_a_at) / Fold change /veh TMPRSS4 (11747572_a_at) / RFU HAMP (11756126_x_at) / Fold change /veh HAMP (11756126_x_at) / RFU RNFT2 (11725882_a_at) / Fold change /veh RNFT2 (11725882_a_at) / RFU NR4A2 (11747474_a_at) / Fold change /veh NR4A2 (11747474_a_at) / RFU ABCC12 (11746883_a_at) / Fold change /veh ABCC12 (11746883_a_at) / RFU TMEM136 (11760407_x_at) / Fold change /veh TMEM136 (11760407_x_at) / RFU CLDN22 /// WWC2 (11732394_at) / Fold change /veh CLDN22 /// WWC2 (11732394_at) / RFU HLA-DPB1 (11760878_x_at) / Fold change /veh HLA-DPB1 (11760878_x_at) / RFU SPINT1 (11716480_a_at) / Fold change /veh SPINT1 (11716480_a_at) / RFU GAP43 (11754022_s_at) / Fold change /veh GAP43 (11754022_s_at) / RFU A4GNT (11735810_at) / Fold change /veh A4GNT (11735810_at) / RFU PRB3 (11715151_x_at) / Fold change /veh PRB3 (11715151_x_at) / RFU TUBB4B (11761932_at) / Fold change /veh TUBB4B (11761932_at) / RFU CAPN14 (11732068_a_at) / Fold change /veh CAPN14 (11732068_a_at) / RFU TMCC2 (11721928_a_at) / Fold change /veh TMCC2 (11721928_a_at) / RFU IRGQ (11745062_a_at) / Fold change /veh IRGQ (11745062_a_at) / RFU FAM174B (11720279_a_at) / Fold change /veh FAM174B (11720279_a_at) / RFU TMPRSS4 (11748680_a_at) / Fold change /veh TMPRSS4 (11748680_a_at) / RFU FAM212B (11763350_a_at) / Fold change /veh FAM212B (11763350_a_at) / RFU PLEKHG5 (11743358_a_at) / Fold change /veh PLEKHG5 (11743358_a_at) / RFU ZSCAN30 (11745921_a_at) / Fold change /veh ZSCAN30 (11745921_a_at) / RFU CMKLR1 (11741424_a_at) / Fold change /veh CMKLR1 (11741424_a_at) / RFU LOC101060620 /// MAPK8IP1 (11723275_at) / Fold change /veh LOC101060620 /// MAPK8IP1 (11723275_at) / RFU SPTSSB (11747773_x_at) / Fold change /veh SPTSSB (11747773_x_at) / RFU PRSS12 (11739890_at) / Fold change /veh PRSS12 (11739890_at) / RFU BIN1 (11741810_x_at) / Fold change /veh BIN1 (11741810_x_at) / RFU WNT11 (11732464_a_at) / Fold change /veh WNT11 (11732464_a_at) / RFU C10orf10 (11716521_a_at) / Fold change /veh C10orf10 (11716521_a_at) / RFU C5orf56 (11738089_at) / Fold change /veh C5orf56 (11738089_at) / RFU CYB561 (11721691_x_at) / Fold change /veh CYB561 (11721691_x_at) / RFU ANKRD19P (11752326_a_at) / Fold change /veh ANKRD19P (11752326_a_at) / RFU OR2T12 /// OR2T33 /// OR2T8 (11738714_s_at) / Fold change /veh OR2T12 /// OR2T33 /// OR2T8 (11738714_s_at) / RFU VCAN (11748164_a_at) / Fold change /veh VCAN (11748164_a_at) / RFU JSRP1 (11732532_at) / Fold change /veh JSRP1 (11732532_at) / RFU KRTAP10-11 (11738290_x_at) / Fold change /veh KRTAP10-11 (11738290_x_at) / RFU MYO3A (11730013_a_at) / Fold change /veh MYO3A (11730013_a_at) / RFU EBF3 (11725865_a_at) / Fold change /veh EBF3 (11725865_a_at) / RFU CAMK2N1 (11719241_x_at) / Fold change /veh CAMK2N1 (11719241_x_at) / RFU C5orf56 (11738088_a_at) / Fold change /veh C5orf56 (11738088_a_at) / RFU OLFML3 (11715873_a_at) / Fold change /veh OLFML3 (11715873_a_at) / RFU LOC100653217 /// NTM (11731650_a_at) / Fold change /veh LOC100653217 /// NTM (11731650_a_at) / RFU MAPK11 (11762145_a_at) / Fold change /veh MAPK11 (11762145_a_at) / RFU FIZ1 (11724087_x_at) / Fold change /veh FIZ1 (11724087_x_at) / RFU OASL (11726364_x_at) / Fold change /veh OASL (11726364_x_at) / RFU SOX15 (11748057_x_at) / Fold change /veh SOX15 (11748057_x_at) / RFU CD79A (11719716_a_at) / Fold change /veh CD79A (11719716_a_at) / RFU HIST1H1D (11736915_at) / Fold change /veh HIST1H1D (11736915_at) / RFU CASKIN2 (11723855_a_at) / Fold change /veh CASKIN2 (11723855_a_at) / RFU LOC730098 (11760151_x_at) / Fold change /veh LOC730098 (11760151_x_at) / RFU OR4N2 (11742367_at) / Fold change /veh OR4N2 (11742367_at) / RFU PRRT2 (11749266_a_at) / Fold change /veh PRRT2 (11749266_a_at) / RFU SNX32 (11753110_a_at) / Fold change /veh SNX32 (11753110_a_at) / RFU CDHR5 (11726645_a_at) / Fold change /veh CDHR5 (11726645_a_at) / RFU RCAN1 (11760418_a_at) / Fold change /veh RCAN1 (11760418_a_at) / RFU FAM167A (11723789_a_at) / Fold change /veh FAM167A (11723789_a_at) / RFU FAM26E (11764081_at) / Fold change /veh FAM26E (11764081_at) / RFU ISYNA1 (11749810_s_at) / Fold change /veh ISYNA1 (11749810_s_at) / RFU ACY1 (11761880_at) / Fold change /veh ACY1 (11761880_at) / RFU 11764098_at / Fold change /veh 11764098_at / RFU SAMD14 (11745864_x_at) / Fold change /veh SAMD14 (11745864_x_at) / RFU NPB (11741838_a_at) / Fold change /veh NPB (11741838_a_at) / RFU TMPRSS6 (11731388_a_at) / Fold change /veh TMPRSS6 (11731388_a_at) / RFU KRTAP10-2 (11738614_at) / Fold change /veh KRTAP10-2 (11738614_at) / RFU ARHGAP8 /// PRR5-ARHGAP8 (11727945_x_at) / Fold change /veh ARHGAP8 /// PRR5-ARHGAP8 (11727945_x_at) / RFU KRTAP5-7 /// NADSYN1 (11734609_at) / Fold change /veh KRTAP5-7 /// NADSYN1 (11734609_at) / RFU RASL12 (11751679_a_at) / Fold change /veh RASL12 (11751679_a_at) / RFU CDKN2B (11736163_a_at) / Fold change /veh CDKN2B (11736163_a_at) / RFU PRF1 (11729649_at) / Fold change /veh PRF1 (11729649_at) / RFU, ZNF638 /// ZNF638-IT1 / Fold change vs veh, ZNF638 /// ZNF638-IT1 / RFU, PANK3 / Fold change vs veh, PANK3 / RFU, SH3YL1 / Fold change vs veh, SH3YL1 / RFU, ZEB2 / Fold change vs veh, ZEB2 / RFU, NRIP1 / Fold change vs veh, NRIP1 / RFU, PTTG1IP / Fold change vs veh, PTTG1IP / RFU, CAPN2 / Fold change vs veh, CAPN2 / RFU, MED14 / Fold change vs veh, MED14 / RFU, SNORA58 / Fold change vs veh, SNORA58 / RFU, C1orf63 / Fold change vs veh, C1orf63 / RFU, LRRFIP1 / Fold change vs veh, LRRFIP1 / RFU, NDUFAF7 / Fold change vs veh, NDUFAF7 / RFU, SLC12A2 / Fold change vs veh, SLC12A2 / RFU, IBTK / Fold change vs veh, IBTK / RFU, ESF1 / Fold change vs veh, ESF1 / Fold change vs veh, TMEM50B / RFU, TAOK1 / Fold change vs veh, TAOK1 / RFU, ACBD3 / Fold change vs veh, ACBD3 / RFU, TMA16 / Fold change vs veh, TMA16 / RFU, RWDD3 / Fold change vs veh, RWDD3 / RFU, BCAT1 / Fold change vs veh, BCAT1 / RFU, EDEM3 / Fold change vs veh, EDEM3 / RFU, TMEM33 / Fold change vs veh, TMEM33 / RFU, WDR75 / Fold change vs veh, WDR75 / RFU, AHCTF1 / Fold change vs veh, AHCTF1 / RFU, TFRC / Fold change vs veh, TFRC / RFU, ZDHHC17 / Fold change vs veh, ZDHHC17 / RFU, NOM1 / Fold change vs veh, NOM1 / RFU, ARL8B / Fold change vs veh, ARL8B / RFU, ZBTB11 / Fold change vs veh, ZBTB11 / RFU, TAMM41 / Fold change vs veh, TAMM41 / RFU, KIAA1704 /// LOC100996395 / Fold change vs veh, KIAA1704 /// LOC100996395 / RFU, ING1 / Fold change vs veh, ING1 / RFU, TRMT61B / Fold change vs veh, TRMT61B / RFU, FUBP3 / Fold change vs veh, FUBP3 / RFU, TP53 / Fold change vs veh, TP53 / RFU, TNKS2 / Fold change vs veh, TNKS2 / RFU, ZFP14 / Fold change vs veh, ZFP14 / RFU, ACTR2 / Fold change vs veh, ACTR2 / RFU, PPP3R1 / Fold change vs veh, PPP3R1 / RFU, PIK3R1 / Fold change vs veh, PIK3R1 / RFU, HNRNPA1 / Fold change vs veh, HNRNPA1 / RFU, RNF170 / Fold change vs veh, RNF170 / RFU, ZNF28 / Fold change vs veh, ZNF28 / RFU, RNGTT / Fold change vs veh, RNGTT / RFU, OGT / Fold change vs veh, OGT / RFU, BRD1 / Fold change vs veh, BRD1 / RFU, MARS / Fold change vs veh, MARS / RFU, ZNF655 / Fold change vs veh, ZNF655 / RFU, FAHD1 / Fold change vs veh, FAHD1 / RFU, BDP1 / Fold change vs veh, BDP1 / RFU, LRRCC1 / Fold change vs veh, LRRCC1 / RFU, ARID1A / Fold change vs veh, ARID1A / RFU, ZNF146 / Fold change vs veh, ZNF146 / RFU, ZNF330 / Fold change vs veh, ZNF330 / RFU, GPN3 / Fold change vs veh, GPN3 / RFU, C9orf123 / Fold change vs veh, C9orf123 / RFU, N4BP2L2 / Fold change vs veh, N4BP2L2 / RFU, ARFIP1 / Fold change vs veh, ARFIP1 / RFU, FAM179B / Fold change vs veh, FAM179B / RFU, BCL10 / Fold change vs veh, BCL10 / RFU, UHRF1BP1L / Fold change vs veh, UHRF1BP1L / RFU, BET1 / Fold change vs veh, BET1 / RFU, CNOT2 / Fold change vs veh, CNOT2 / RFU, ZNF268 / Fold change vs veh, ZNF268 / Fold change vs veh, ZNF507 / RFU, DGCR2 / Fold change vs veh, DGCR2 / RFU, WDSUB1 / Fold change vs veh, WDSUB1 / Fold change vs veh, HSP90B1 /// MIR3652 / RFU, ADSS / Fold change vs veh, ADSS / RFU, GK / Fold change vs veh, GK / RFU, ZNF148 / Fold change vs veh, ZNF148 / RFU, TAF9 / Fold change vs veh, TAF9 / RFU, SLC1A5 / Fold change vs veh, SLC1A5 / RFU, SLMO2 / Fold change vs veh, SLMO2 / RFU, ABCC4 / Fold change vs veh, ABCC4 / RFU, LOC101060439 /// RAP1B / Fold change vs veh, LOC101060439 /// RAP1B / RFU, RFX7 / Fold change vs veh, RFX7 / RFU, GTPBP10 / Fold change vs veh, GTPBP10 / RFU, CNEP1R1 / Fold change vs veh, CNEP1R1 / RFU, BIVM-ERCC5 /// ERCC5 / Fold change vs veh, BIVM-ERCC5 /// ERCC5 / RFU, ILF3 / Fold change vs veh, ILF3 / RFU 11762660_at / Fold change /veh 11762660_at / RFU VCAN (11757783_s_at) / Fold change /veh VCAN (11757783_s_at) / RFU DDX43 (11728927_at) / Fold change /veh DDX43 (11728927_at) / RFU KRT8 (11758188_x_at) / Fold change /veh KRT8 (11758188_x_at) / RFU NKD1 (11759106_at) / Fold change /veh NKD1 (11759106_at) / RFU SRD5A1 (11742802_a_at) / Fold change /veh SRD5A1 (11742802_a_at) / RFU TPSAB1 /// TPSB2 (11721975_s_at) / Fold change /veh TPSAB1 /// TPSB2 (11721975_s_at) / RFU GSTM3 (11746129_a_at) / Fold change /veh GSTM3 (11746129_a_at) / RFU IL23R (11737362_x_at) / Fold change /veh IL23R (11737362_x_at) / RFU TMEM51 (11727254_a_at) / Fold change /veh TMEM51 (11727254_a_at) / RFU PIWIL2 (11732686_x_at) / Fold change /veh PIWIL2 (11732686_x_at) / RFU ORM1 (11744905_x_at) / Fold change /veh ORM1 (11744905_x_at) / RFU CCDC152 (11743942_at) / Fold change /veh CCDC152 (11743942_at) / RFU ECM1 (11717891_a_at) / Fold change /veh ECM1 (11717891_a_at) / RFU IL23R (11748794_a_at) / Fold change /veh IL23R (11748794_a_at) / RFU TNFAIP8L3 (11732012_x_at) / Fold change /veh TNFAIP8L3 (11732012_x_at) / RFU MBOAT4 (11741988_at) / Fold change /veh MBOAT4 (11741988_at) / RFU 11764193_at / Fold change /veh 11764193_at / RFU TMEM53 (11763286_at) / Fold change /veh TMEM53 (11763286_at) / RFU MAGEB2 (11727129_at) / Fold change /veh MAGEB2 (11727129_at) / RFU TMEM200A (11744735_a_at) / Fold change /veh TMEM200A (11744735_a_at) / RFU CCDC152 (11751479_a_at) / Fold change /veh CCDC152 (11751479_a_at) / RFU FAM211A (11726209_a_at) / Fold change /veh FAM211A (11726209_a_at) / RFU RGS16 (11746705_a_at) / Fold change /veh RGS16 (11746705_a_at) / RFU VCAN (11755009_s_at) / Fold change /veh VCAN (11755009_s_at) / RFU RHOB (11743442_s_at) / Fold change /veh RHOB (11743442_s_at) / RFU RGS16 (11720943_a_at) / Fold change /veh RGS16 (11720943_a_at) / RFU RGS16 (11720944_at) / Fold change /veh RGS16 (11720944_at) / RFU, VPS4B / Fold change vs veh, VPS4B / RFU, CREB1 / Fold change vs veh, CREB1 / RFU, DNAJC13 / Fold change vs veh, DNAJC13 / RFU, GNAQ / Fold change vs veh, GNAQ / RFU, CDK5R1 / Fold change vs veh, CDK5R1 / RFU, ZRANB3 / Fold change vs veh, ZRANB3 / RFU, CUL4A / Fold change vs veh, CUL4A / RFU, CCNY / Fold change vs veh, CCNY / RFU, UFL1 / Fold change vs veh, UFL1 / RFU, COG3 / Fold change vs veh, COG3 / RFU, DIAPH2 / Fold change vs veh, DIAPH2 / RFU, SKA2 / Fold change vs veh, SKA2 / RFU, AFF3 / Fold change vs veh, AFF3 / RFU, LMF1 / Fold change vs veh, LMF1 / RFU, IPO11 / Fold change vs veh, IPO11 / RFU, DFFB / Fold change vs veh, DFFB / RFU, FOXP1 / Fold change vs veh, FOXP1 / RFU, CARD8 / Fold change vs veh, CARD8 / RFU, STRN3 / Fold change vs veh, STRN3 / RFU, ADK / Fold change vs veh, ADK / RFU, RASSF2 / Fold change vs veh, RASSF2 / RFU, WIPF1 / Fold change vs veh, WIPF1 / RFU, LARP1B / Fold change vs veh, LARP1B / RFU, RASA1 / Fold change vs veh, RASA1 / RFU, RB1 / Fold change vs veh, RB1 / RFU, PPFIA1 / Fold change vs veh, PPFIA1 / RFU, MAT2A / Fold change vs veh, MAT2A / RFU, CCT5 / Fold change vs veh, CCT5 / RFU, WDR92 / Fold change vs veh, WDR92 / RFU, CUX1 / Fold change vs veh, CUX1 / RFU, TTC7A / Fold change vs veh, TTC7A / RFU, TMEM135 / Fold change vs veh, TMEM135 / RFU, DEPTOR / Fold change vs veh, DEPTOR / RFU, CPM / Fold change vs veh, CPM / RFU, DNAJB6 / Fold change vs veh, DNAJB6 / RFU, CACNA2D3 / Fold change vs veh, CACNA2D3 / RFU, DTX4 / Fold change vs veh, DTX4 / RFU, TFCP2 / Fold change vs veh, TFCP2 / RFU, GMCL1 /// GMCL1P1 / Fold change vs veh, GMCL1 /// GMCL1P1 / RFU, AEBP2 / Fold change vs veh, AEBP2 / RFU, SNHG1 /// SNORD22 /// SNORD25 /// SNORD26 /// SNORD27 /// SNORD28 /// SNORD29 /// SNORD31 / Fold change vs veh, SNHG1 /// SNORD22 /// SNORD25 /// SNORD26 /// SNORD27 /// SNORD28 /// SNORD29 /// SNORD31 / Fold change (Aza/veh), C12orf56 (ProbeSet 11735607_a_at) / Fold change (ACY-1035/veh), C12orf56 (ProbeSet 11735607_a_at) / Fold change (Aza/veh), FGFR1OP (ProbeSet 11751329_s_at) / Fold change (ACY-1035/veh), FGFR1OP (ProbeSet 11751329_s_at) / Fold change (Aza/veh), VPS36 (ProbeSet 11739960_a_at) / Fold change (ACY-1035/veh), VPS36 (ProbeSet 11739960_a_at) / RFU SYPL1 (11715823_x_at) / Fold change /veh SYPL1 (11715823_x_at) / RFU IGFBP7 (11715501_s_at) / Fold change /veh IGFBP7 (11715501_s_at) / RFU REEP3 (11722064_at) / Fold change /veh REEP3 (11722064_at) / RFU IGLL1 (11728026_x_at) / Fold change /veh IGLL1 (11728026_x_at): dose or concentration left out as unconfirmed",
  "conditions": "MV-4-11 cells, 48 hours",
  "data": [
    {"compound": "Nc1ncn([C@@H]2O[C@H](CO)[C@@H](O)[C@H]2O)c(=O)n1", "note": "[azacitidine]", "values": [
      {"measurement": "Fold change /veh KRTAP10-11 (11738290_x_at)", "value": 1.14}
    ]}
  ]
}
